Source: patent US20050043515A1, “Tobacco-specific nitrosamine detection assays and reagents” (priority 2003, published 2005)
Like-named read-outs stand apart in the source and are kept apart here.

What was measured:
[1] = tested on: monoclonal antibody 245J15; experiment: Competitive ELISA for total TSNAs using monoclonal antibody 245J15; type: binding, mice
Method: (§1) Microtiter plates (Nunc, Maxisorp) were coated by adding 100 μl per well of goat anti mouse IgG Fc specific (Jackson Immunoresearch, West Grove, Pa.) at 2.5 micrograms per milliliter (μg/ml) in phosphate buffered saline (Sigma Chemical Co.) and allowing the solution to sit overnight. The next day, contents were discarded and unreacted sites on the plastic wells were blocked with 300 μl per well of PBT (1% Bovine Serum Albumen (Sigma Chemical Co.), 0.05% Tween 20 (Sigma Chemical Co.) in PBS) for one hour. Contents were again discarded and 100 μl was added per well of a 1/10,000 dilution of hybridoma culture supernatant of monoclonal antibody 245B5. Wells were then incubated one hour at room temperature. Contents of the wells were again discarded and wells washed three times with PBS with 0.05% Tween (PT). Aliquots containing 50 μl of test compounds diluted in PBT were added to the wells in duplicate, followed in less than five minutes by 50 μl of NNK conjugated to horseradish peroxidase (5 μg of horseradish peroxidase/ml). Wells were incubated for one hour at room temperature, after which they were washed six times with PT and excess liquid removed by tapping. A 100 μl aliquot of a peroxide/3,3′,5,5′-tetramethylbenzidine substrate/chromagen (Catalog # TMBUS, Moss Corporation, Pasadena, Md.) was added. Color was read at 650 nm after fifteen minutes in a microplate reader (SpectraMax Plus, Molecular Devices, Sunnyvale, Calif.). The presence of a TSNA reactive with monoclonal antibody 245B5 caused a decrease in the strength of the color signal.
A total TSNA assay was developed for monoclonal antibody 245J15.
Each analyte was obtained from the source identified in Example 3.
(§2) The affinity of monoclonal antibodies 245B5 and 245J15 to the N-nitroso group on compounds was evaluated using the immunoassay of Example 3 and the immunoassay of Example 4. Parent compounds lacking nitroso groups but having secondary amine groups were run in the immunoassays as previously described. Identical immunoassays were also conducted for compounds that were identical with the parent compounds except that for the addition of the nitroso group to the secondary amine in the compounds. NNN, NAT, and NAB are all examples of TSNAs. N-nitrosopyrollidine may be found in tobacco smoke, but is not a TSNA.

[2] = tested on: monoclonal antibody 245B5; experiment: Competitive ELISA for NNK using monoclonal antibody 245B5; type: binding, mice; conditions: for % Crossreactivity: NNK amount for 50% inhibition divided by test compound amount, x100
Method: as §1
TSNAs were purchased from Toronto Research Chemicals. […] The y-axis is B/Bo, which is the amount of color at 650 nm obtained in the presence of the compound divided by the amount of color obtained when no competing compound is present.
as §2

[3] = tested on: rabbit antisera raised against NNK oxime derivative conjugates; type: binding, New Zealand White Rabbits; conditions: one rabbit; for Crossreactivity at the 50% point: relative to NNK
Method: NNK oxime derivatives were prepared and conjugated to KLH and BSA as described in Example 1. The conjugates were diluted in complete Freund's adjuvant to prepare a 1:1 solution of conjugate:adjuvant. New Zealand White Rabbits (6 to 12 months of age) were immunized by injection with the suspension. Rabbits received two booster injections of the same conjugate/adjuvant at one month and two months after initial injection. At three months time, point test bleeds were tested against microtiter plates coated with oxime-derivatized NNK prepared and conjugated to ovalbumen using procedures described in Example 1.
All of these rabbits were used individually to produce competitive assays, as described in Example 3, with the exceptions that a 1:250,000 dilution of antisera in PBT was substituted for the supernatant and the microtiter plates were first coated with goat anti rabbit IgG (Catalog # 115-005-008, Jackson Immunoresearch, West Grove, Pa.) rather than goat anti mouse IgG. All other details were the same.

[4] = Antibody 245J15, NNK amount for 50% inhibition divided by test compound amount, x100
[5] = Antibody 245J15, read-out: 50% Inhibition at: M
[6] = Table 4, Antibody 245J15, parent compound vs N-nitroso derivative, read-out: 50% Inhibition at
[7] = 0.5 B/Bo, read-out: 50% Inhibition at: M
[8] = Table 3, parent compound vs N-nitroso derivative, read-out: 50% Inhibition at

Structure (SMILES) | 50% Inhibition at: ppm ([1]; Antibody 245J15) [ppm] | % Crossreactivity [1, 4] [%] | IC50 [1, 5] [µM] | IC50 [1, 6] [µM] | 50% Inhibition at: Ppm ([2]; 0.5 B/Bo) [Ppm] | IC50 [2, 7] [µM] | IC50 [2, 8] [µM] | other results
O=C(O)C1CCCCN1 (racemic) [DL-Pipecolinic Acid] | 13630.2 | 0 |  |  |  |  |  | 
CN1CCCCC1CO (centres unmarked) [1-Methyl-2-piperidinemethanol] | 781.4 | 0.008 | 6000 |  |  |  |  | 
CN1CCCC1CCO (centres unmarked) [1-Methyl-2-pyrrolidineethanol] | 1264.4 | 0.005 | 9800 |  |  |  |  | 
CN1CCC(O)C1 (centres unmarked) [1-Methyl-3-pyrrolidinol] | 92.7 | 0.065 | 920 |  |  |  |  | 
O=C1CCCN1 [2-Pyrrolidinone] | 2594 | 0.002 | 30000 |  |  |  |  | 
Cl.OC1CCCNC1 (centres unmarked) [3-Hydroxypiperidine hydrochloride] | 17492.7 | 0 |  |  |  |  |  | 
OC1CCNC1 (centres unmarked) [3-Pyrrolidinol] | 5373.9 | 0.001 | 62000 |  |  |  |  | 
Cl.OC1CCNCC1 [4-Hydroxypiperidine hydrochloride] | 12282.5 | 0 | 89000 |  |  |  |  | 
OC[C@H]1CCCN1 [(R)-(−)-2-Pyrrolidine-methanol] | 1898.1 | 0.003 | 19000 |  |  |  |  | 
OC[C@@H]1CCCN1 [(S)-(+)-2-Pyrrolidine-methanol] | 996.7 | 0.006 | 9900 |  |  |  |  | 
c1cncc([C@@H]2CCCCN2)c1 [Anabasine] | 214.9 | 0.028 | 1300 | 1300 | >200 | > 1000 | > 1000 | % Crossreactivity [2]: <0.0002%
C1=CCC(c2cccnc2)NC1 (centres unmarked) [Anatabine] | 8.3 | 0.7 | 52 | 52 | 311.06 | 1900 | 1900 | % Crossreactivity [2]: 0.0004%
CCCCNCCCC [Dibutylamine] |  |  |  | > 50000 |  |  | > 50000 | 
CN1CCCC[C@H]1c1cccnc1 [Methyl Anabasine] | 30.2 | 0.2 | 180 |  | 271.90 | 1600 |  | % Crossreactivity [2]: 0.0005%
CCCCN(CCCC)N=O [N-Nitrosodibutylamine] |  |  |  | 10000 |  |  | 16000 | 
O=NN1CCCC1 [N-Nitrosopyrrolidine] |  |  |  | 5000 |  |  | 3000 | 
O=NN1CCCC[C@H]1c1cccnc1 [NAB, N-nitrosoanabasine] | 0.72 | 8.3 | 3.8 | 3.8 | 1.35 | 7.1 | 7.1 | Crossreactivity at the 50% point [3]: 1.6%
O=NN1CC=CC[C@H]1c1cccnc1 [NAT, N-nitrosoanatabine] | 0.13 | 46.3 | 0.68 | 0.68 | 0.35 | 1.8 | 1.8 | Crossreactivity at the 50% point [3]: 1.7%
CN(N=O)C(CCC=O)c1cccnc1 (centres unmarked) [NNA, 4-(methylnitrosamino)4-(3-pyridyl)butanal] | 0.56 | 10.8 | 2.7 |  | 18.00 | 87 |  | % Crossreactivity [2]: 0.0075%
CN(CCCC(O)c1cccnc1)N=O (centres unmarked) [NNAL, 4-(methylnitrosamino)-1-(3-pyridyl)-1-butanol] | 0.05 | 129.6 | 0.22 |  | 0.06923 | 0.33 |  | 
CN(CCCC(=O)c1cccnc1)N=O [NNK, 4-(methylnitrosamino)-1-(3-pyridyl)-1-butanone] | 0.06 | 100 | 0.29 |  | 0.00135 | 0.0065 |  | sensitivity at the 50% inhibition point ([3]; 1:250,000 dilution of antisera): 0.1 μg NNK per ml; % Crossreactivity [2]: 100.00%
CN1CCCC1c1cccnc1 (centres unmarked) [Nicotine] | 80.9 | 0.074 | 500 |  | 16.88 | 100 |  | Crossreactivity at the 50% point [3]: 0.024%; % Crossreactivity ([1]; Antibody 245J15, NNK amount for 50% inhibition divided by test compound amount, x100, listed as Nicotine (Acros)): 0.034%; 50% Inhibition at: ppm ([1]; Antibody 245J15, listed as Nicotine (Acros)): 178.9 ppm; IC50 ([1]; Antibody 245J15, listed as Nicotine (Acros), read-out: 50% Inhibition at: M): 1100 µM
O=C(O)C1CCCNC1 (centres unmarked) [Nipecotic Acid] | 24193.5 |  |  |  |  |  |  | 
c1cncc([C@@H]2CCCN2)c1 [Nornicotine] | 223.1 | 0.027 | 1500 | 1500 | >200 | > 1000 | > 1000 | % Crossreactivity [2]: <0.0002%
C1CCNCC1 [Piperidine] | 1300.3 | 0.005 | 15000 |  |  |  |  | 
c1ccncc1 [Pyridine] |  |  |  |  |  |  |  | 50% Inhibition at: ppm [1]: 946.9 ppm; % Crossreactivity [1]: 0.006%; IC50 ([1]; read-out: 50% Inhibition at: M): 12000 µM
C1CCNC1 [Pyrrolidine] |  |  |  | 20000 |  |  | 20000 | 
